# Measurements published in patent publication US20230355773A1, “[…] DRUG CONJUGATES” (P.I.F. Entrepreneurs Ltd., priority 2020, published 2023).
# Read-outs that look alike come from different tables or passages of the source.
# Tests used:
# [1] = test system: activated macrophages (THP1 monocytes transformed with PMA, infected with Leishmania donovani); conditions: for activated macrophage survival: 0.1, 1 and 10 µg/ml, 12-14 hours of incubation, FIG. 1
# Protocol: (§1) A macrophage killing assay was performed in order to determine potential of conjugates described herein for treatment of macrophage-related diseases. THP1 monocytes were transformed into macrophages for using phorbol myristate acetate (PMA). […] The data shown in FIG. 1 represents macrophage survival percent after 12-14 hours of incubation with conjugates. […] In the figure, series 1 represents control macrophages which were not infected. Series 2, 3 and 4 represent the 0.1, 1 and 10 µg/ml dosages. The values shown in these series represented number of cells, as normalized to control, non-infected macrophages.
# (§2) Media used for macrophage assay: RPMI with 10% FCS, supplemented with pencillin streptomycin and glutamine. The compounds were prepared in phosphate buffered saline with pH adjusted to 7.6 and were used immediately after preparation.
# Infection of macrophage: The macrophages were infected with 5x times with Leishmania donovani - for a density of 1x10^5 monocytes transformed to macrophage, the infection density is 5 x 10^5 L.donovani.
# (§3) The experiment was performed according to the following schedule: • Monocyte to macrophage transformation: 0 to 48 hours • Macrophage Infection with Leishmania: 48-84 hours • Treatment with compound: 84 - 96 hours • Plate used for assay: Microscopy compatible glass bottom plate -24 wells.
# The macrophages that were alive were counted in five different fields of the wells for different concentration and the average count was used for the assay. Based on the count of the control macrophages, the % was adjusted.
# [2] = test system: non-infected macrophages (THP1 monocytes transformed with PMA); conditions: 10 µg/ml, live imaging, 8 hours, FIG. 2
# Protocol: as §1, with “FIG.” for “FIG. 1 represents macrophage survival percent after 12-14 hours of incubation with conjugates.”
# as §2, §3
# [3] = fasted mice
# Protocol: CC57BL/6 mice aged approximately 9 weeks were weighed and acclimated to facility conditions. Animals were assigned to 3 treatment groups based on their body weights, creating homogenous groups of 5 mice in each group. After fasting, blood glucose of levels of mice were tested at time 0, at which time the test drug was administered, then subsequently at 30, 60, 90 and 120 minutes post administration, using blood glucose test strips.
# [4] = test system: neuroinflammatory response induced by LPS; conditions: I5 100 µg per mouse s.c.
# Protocol: 120 mice (female C57BL/6) mice approximately 6 weeks old were assigned into groups based on body weight, creating homogenous groups, and acclimated to facility conditions over 5 days.
# A neuroinflammatory response was induced in all mice by intraperitoneal administration of 5 mg/kg of LPS. […] Group 2: dexamethasone at […]. Group 3: Vehicle. Test items were administered at the following time points: 30 minutes before LPS injection, 2 hours post-LPS injection and 10 hours post LPS injection (where applicable). 10 animals from each group were sacrificed at the following time points: 4, 8, 24 and 48 hours post LPS administration. Brains were collected and preserved in buffered 4% formaldehyde. Bronchoalveolar lavage fluid was extract from lungs of all animals.
# [5] = test system: cytokines levels after LPS induction; conditions: 100 µg per mouse s.c.
# [6] = female, ICR, mouse, in vivo
# in vivo = conditions: female, ICR, mouse
# [7] = 24 hours following LPS induction
# [8] = plasma, parameters used for estimating t½
# [9] = plasma, single IV, I5 200 mg/kg, dexamethasone sodium phosphate 40 mg/kg
smiles,measurement,setting,value
"C[C@@H]1C[C@H]2[C@@H]3CCC4=C/C(=N/OCCCO[C@H]5O[C@H](CO)[C@@H](O)[C@H](O)[C@@H]5O)C=C[C@]4(C)[C@@]3(F)[C@@H](O)C[C@]2(C)[C@@]1(O)C(=O)CO [Compound I5, 1-((8S,9R,10S,11S,13S,14S,16R,17R,E)-9-Fluoro-11,17-Dihydroxy-10,13,16-Trimethyl-3-((3-(((2S,3S,4S,5S,6R)-3,4,5–Trihydroxy-6-(Hydroxymethyl)Tetrahydro-2H-Pyran-2-yl)oxy)propoxy)imino)-6,7,8,9,10,11,12,13,14,15,16,17-Dodecahydro-3H-cyclopenta[a]phenanthren-17-yl)-2-Hydroxyethan-1-One]",time to killing of activated macrophages,"[1]; 10 µg/ml, live imaging, FIG. 2",≤ 8 h
same,activated macrophage survival,[1],particularly effective
same,effect on macrophages not activated by infection,[2],remained unchanged
same,blood glucose relative to baseline,"[3]; 100 µg per mouse, 30 to 120 minutes post-administration",not increased above baseline
same,blood glucose relative to baseline,[3]; 2500 µg per mouse (25-fold molar equivalent of 65 µg dexamethasone),no elevation of blood glucose level
same,Clinical score - Appearance,"[4]; 24 Hr. following LPS induction, vs groups 2 and 3",best clinical score
same,Clinical score - Eye condition,[4]; [7],best clinical score
same,Clinical score - Response to stimulus,[4]; [7],best clinical score
same,Total clinical score,[4]; compared to groups 2 and 3,best clinical score
same,"blood-brain barrier penetration, evidenced by CNS cytokine levels",[5]; LPS model,able to penetrate the blood-brain barrier
same,Cytokines levels in Bronchoalveolar lavage fluid,"[5]; IL-1 a and MCP1 (4 Hr. post LPS), MCP1 (8 Hr. post LPS)",immunomodulatory effect
same,Cytokines levels in brains,"[5]; IL-2 (4 and 8 Hr. post LPS), IL-10 (8 Hr.), VEGF a (8 and 24 Hr.), vs groups 2 and 3",immunomodulatory effect
same,Cytokines levels in serum,"[5]; IL-17 and RANTES (4 Hr. post LPS), LIF (8 Hr. post LPS)",immunomodulatory effect
same,relative systemic exposure,200 mg Compound I5 compared to 40 mg Dexamethasone,4.2%
same,elimination curve in plasma,mice after IV dosing,two-phase elimination curve
same,AUC%Extrap,[8],0.403%
same,Lambda z,[8],0.164 h⁻¹
same,AUCINF/Dose,"plasma, single IV",93.4 h^∗ng/mL/mg/kg
same,"Exprel, relative systemic exposure [AUCinf/dose (Compound I5)/AUCinf/dose (Dexamethasone)] x 100","plasma, single IV, I5 200 mg/kg vs dexamethasone 40 mg/kg",4.2%
same,CL,[9],178.33 mL/min/kg
same,Tlast,[9],24.0 h
same,Concentration in brain (CSF) (pooled),[6],29.4 ng/mL
same,pooled CSF levels detected,[6]; iv,6.86 to 29.4 ng/mL
same,CSF levels as fold the LLOQ (5.00 ng/mL),"[6]; iv, 200 mg/kg",1.4-5.9 fold
same,half-life,"in vivo; T½, plasma, table Parameters used for estimating t½ in plasma",4.23 h
same,Tmax,in vivo; iv,5 min
same,clearance,in vivo; iv,178 mL/min/kg
same,half-life,"in vivo; iv, T½, plasma, single IV, I5 200 mg/kg, dexamethasone sodium phosphate 40 mg/kg, table PK parameters in plasma",4.23 h
same,Vd,"in vivo; iv, Vss, plasma, single IV, I5 200 mg/kg, dexamethasone sodium phosphate 40 mg/kg",12.1 L/kg
same,Vd,"in vivo; iv, Vz, plasma, single IV, I5 200 mg/kg, dexamethasone sodium phosphate 40 mg/kg",65.3 L/kg
same,Vd,"in vivo; iv, distribution volume, Vss, plasma, IV",12.1 L/kg
same,half-life,"in vivo; iv, terminal elimination half-life in plasma, mice after IV dosing",~4.2 h
CC(CC(=O)N/N=C(\CO)[C@@]1(O)[C@H](C)C[C@H]2[C@@H]3CCC4=CC(=O)C=C[C@]4(C)[C@@]3(F)C(O)C[C@@]21C)O[C@H]1OC(CO)[C@@H](O)C(O)C1O (stereo partly shown) [MD4],activated macrophage survival,[1],particularly effective
"C[C@@H]1C[C@H]2[C@@H]3CCC4=CC(=O)C=C[C@]4(C)[C@@]3(F)C(O)C[C@]2(C)[C@@]1(O)C(=O)CO (stereo partly shown) [dexamethasone, reference compound]",increase of blood sugar levels (change from baseline),"[3]; dexamethasone 65 mg (so in the source), 30 to 120 minutes post administration",about 15%
